Experimental data taken from US20100311714A1, “1H-IMIDAZO[4,5-c]QUINOLINONE COMPOUNDS” (priority 2009, published 2010).

Tests used:
[1] = molecular target: T1, PI3K alfa (Homo sapiens, UniProt P42336); assay: PI3K alpha kinase assay (Kinase-Glo luminescence); assay type: biochemical; details: read-out: PI3Kalfa/IC50
T1 construct: His tag (C); made in house; host or cells: baculovirus BV1075; Tn5 (Trichoplusia ni) or TiniPro insect cells
In short: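 IC50 values come from a four-parameter logistic fit of percent inhibition at eight concentrations, typically 10 to 0.003 μM. Recombinant PI3Kα at 10 nM turned over 1 μM ATP with 10 μg/mL PI for 60 min at room temperature, and residual ATP was measured by Kinase-Glo.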

[2] = molecular target: T2, PI3K gamma (Homo sapiens, UniProt P48736); assay: PI3K gamma kinase assay (Kinase-Glo luminescence); assay type: biochemical; details: read-out: PI3Kgamma/IC50
T2 construct: His tag (C); made in house; host or cells: construct from Roger Williams lab (pVL1393); baculovirus BV950; Tn5 (Trichoplusia ni) or TiniPro insect cells
Description: In a more preferred assay, the kinase reaction is performed in a final volume of 10 μL per well of a low volume non binding CORNING, 384 well black plate (Cat. No. #3676). The final concentrations of ATP and phosphatidyl inositol (PI) in the assay are 1 μM and 10 μg/mL respectively. The reaction is started by the addition of ATP.
The components of the assay are added per well as follows:
50 nL test compounds in 90% DMSO per well, in columns 1-20, 8 concentrations (⅓ and 1/3.33 serial dilution step) in single. • Low control: […] of 90% DMSO in half the wells of columns 23-24 (0.45% in final). • High control: 50 nL of reference compound (e.g. compound of Example 7 in WO 2006/122806) in the other half of columns 23-24 (2.5 μM in final). • Standard: 50 nL of reference compound as just mentioned diluted as the test compounds in columns 21-22 • 20 mL ‘buffer’ are prepared per assay: • 200 μL of 1M TRIS HCl pH7.5 (10 mM in final) • 60 μL of 1M MgCl2 (3 mM in final) • 500 μL of 2M NaCl (50 mM in final) • 100 μL of 10% CHAPS (0.05% in final) • 200 μL of 100 mM DTT (1 mM in final) • 18.94 mL of nanopure water • 10 mL ‘PI’ are prepared per assay: • 200 μL of 1 mg/ml L-alpha-Phosphatidylinositol (Liver Bovine, Avanti Polar Lipids Cat. No. 840042C MW=909.12) prepared in 3% OctylGlucoside (10 μg/ml in final) • 9.8 mL of ‘buffer’ • 10 mL ‘ATP’ are prepared per assay: • 6.7 μL of 3 mM stock of ATP giving a final concentration of 1 μM per well • 10 mL of ‘buffer’ • 2.5 mL of each PI3K construct are prepared per assay in ‘PI’ with the following final concentration: • 10 nM PI3K alfa EMV B1075 • 25 nM beta EMV BV949 • 10 nM delta EMV BV1060 • 150 nM gamma EMV BV950 • 5 μL of ‘PI/PI3K’ are added per well. • 5 μl ‘ATP’ are added per well to start the reaction. • The plates are then incubated at room temperature for 60 minutes (alfa, beta, delta) or 120 minutes (gamma). • The reaction is terminated by the addition of 10 μL Kinase-Glo (Promega Cat. No. #6714). • The assay plates are read after 10 minutes in Synergy 2 reader (BioTek, Vermont USA) with an integration time of 100 milliseconds and sensitivity set to 191. • Output: The High control is around 60′000 counts and the Low control is 30′000 or lower • This luminescence assay gives a useful Z′ ratio between 0.4 and 0.7
PI3K gamma is purified in two chromatographic steps: immobilized metal affinity chromatography (IMAC) on a Ni Sepharose resin (GE Healthcare) and gel filtration (GFC) utilizing a Superdex 200 26/60 column (GE Healthcare). All buffers are chilled to 4° C. and lysis is performed chilled on ice. Column fractionation is performed rapidly at room temperature. Typically frozen insect cells are lysed in a hypertonic lysis buffer and applied to a prepared IMAC column. The resin is washed with 3-5 column volumes of lysis buffer, followed by 3-5 column volumes wash buffer containing 45 mM imidazole, and the target protein is then eluted with a buffer containing 250 mM imidazole. Fractions are analyzed by Coomassie stained SDS-PAGE gels, and fractions containing target protein are pooled and applied to a prepared GFC column. Fractions from the GFC column are analyzed by Coomassie stained SDS-PAGE gels, and fractions containing target protein are pooled. The final pool is dialyzed into a storage buffer containing 50% glycerol and stored at −20° C. The final pool is assayed for activity in the phosphoinostitol kinase assay.
IC50 is determined by a four parameter curve fitting routine that comes along with “excel fit”. A 4 Parameter logistic equation is used to calculate IC50 values (IDBS XLfit) of the percentage inhibition of each compound at 8 concentrations (usually 10, 3.0, 1.0, 0.3, 0.1, 0.030, 0.010 and 0.003 μM). Alternatively, IC50 values are calculated using idbsXLfit model 204, which is a 4 parameter logistic model.

T2 sequence (P48736 144-1102 limits assumed): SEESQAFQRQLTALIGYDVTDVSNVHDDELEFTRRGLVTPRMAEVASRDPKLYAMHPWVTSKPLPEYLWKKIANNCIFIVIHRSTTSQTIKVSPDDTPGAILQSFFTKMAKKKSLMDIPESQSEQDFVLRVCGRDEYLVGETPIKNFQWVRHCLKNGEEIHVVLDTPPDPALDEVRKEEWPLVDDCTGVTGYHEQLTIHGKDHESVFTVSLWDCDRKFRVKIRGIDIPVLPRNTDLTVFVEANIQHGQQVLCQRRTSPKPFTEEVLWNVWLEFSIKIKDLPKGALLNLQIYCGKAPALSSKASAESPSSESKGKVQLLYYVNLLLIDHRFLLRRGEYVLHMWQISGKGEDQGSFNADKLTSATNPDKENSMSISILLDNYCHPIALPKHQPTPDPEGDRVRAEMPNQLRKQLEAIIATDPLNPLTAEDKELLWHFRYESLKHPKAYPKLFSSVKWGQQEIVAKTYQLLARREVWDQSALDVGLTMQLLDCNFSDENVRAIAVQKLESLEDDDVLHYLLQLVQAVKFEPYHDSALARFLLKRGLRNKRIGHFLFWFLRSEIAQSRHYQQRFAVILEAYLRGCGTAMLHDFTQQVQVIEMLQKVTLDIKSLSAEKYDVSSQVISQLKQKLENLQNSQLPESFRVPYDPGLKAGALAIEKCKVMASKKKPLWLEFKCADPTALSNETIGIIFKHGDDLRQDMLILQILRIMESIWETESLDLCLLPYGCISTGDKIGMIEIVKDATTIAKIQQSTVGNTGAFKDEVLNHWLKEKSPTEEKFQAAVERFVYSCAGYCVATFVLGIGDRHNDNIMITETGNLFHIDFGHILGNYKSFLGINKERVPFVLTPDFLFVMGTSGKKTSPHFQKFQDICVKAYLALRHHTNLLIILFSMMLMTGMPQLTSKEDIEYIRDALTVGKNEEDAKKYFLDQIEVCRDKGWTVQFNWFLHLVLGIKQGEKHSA
T1 sequence (P42336 with tags, fused parts or gaps limits assumed): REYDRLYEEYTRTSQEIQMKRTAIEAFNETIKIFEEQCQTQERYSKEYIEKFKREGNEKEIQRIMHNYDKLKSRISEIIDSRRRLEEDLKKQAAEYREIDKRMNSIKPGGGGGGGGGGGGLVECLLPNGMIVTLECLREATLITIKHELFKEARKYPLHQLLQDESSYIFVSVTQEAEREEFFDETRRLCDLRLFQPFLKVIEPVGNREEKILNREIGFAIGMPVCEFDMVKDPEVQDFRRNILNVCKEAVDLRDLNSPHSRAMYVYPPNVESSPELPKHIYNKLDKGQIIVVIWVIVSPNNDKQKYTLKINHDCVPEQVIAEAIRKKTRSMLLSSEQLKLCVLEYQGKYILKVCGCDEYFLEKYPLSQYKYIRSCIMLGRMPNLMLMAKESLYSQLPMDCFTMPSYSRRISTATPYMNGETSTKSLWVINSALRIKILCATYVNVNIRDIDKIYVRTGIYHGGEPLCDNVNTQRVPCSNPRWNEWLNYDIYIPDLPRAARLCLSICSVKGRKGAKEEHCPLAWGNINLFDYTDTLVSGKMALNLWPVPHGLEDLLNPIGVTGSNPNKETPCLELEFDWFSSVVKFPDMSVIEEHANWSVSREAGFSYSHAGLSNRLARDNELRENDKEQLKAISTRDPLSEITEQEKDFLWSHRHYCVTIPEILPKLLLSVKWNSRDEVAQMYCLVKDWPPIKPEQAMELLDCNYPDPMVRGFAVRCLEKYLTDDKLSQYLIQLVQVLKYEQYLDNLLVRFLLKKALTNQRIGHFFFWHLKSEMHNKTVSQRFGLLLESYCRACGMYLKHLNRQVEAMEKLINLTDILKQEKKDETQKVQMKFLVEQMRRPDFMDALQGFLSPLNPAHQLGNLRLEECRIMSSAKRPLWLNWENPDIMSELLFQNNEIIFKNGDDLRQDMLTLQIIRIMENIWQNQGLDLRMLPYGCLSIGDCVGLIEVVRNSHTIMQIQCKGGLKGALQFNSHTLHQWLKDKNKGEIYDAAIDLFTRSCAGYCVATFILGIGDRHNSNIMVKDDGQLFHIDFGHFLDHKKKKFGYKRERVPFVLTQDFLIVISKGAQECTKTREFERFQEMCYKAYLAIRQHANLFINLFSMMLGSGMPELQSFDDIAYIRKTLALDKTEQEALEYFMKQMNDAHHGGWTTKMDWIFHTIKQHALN

Structure (SMILES): CCOc1ccc(-c2ccc3ncc4c(c3c2)n(-c2cccnc2OC)c(=O)n4C)cn1 [Example 1.5, 8-(6-Ethoxy-pyridin-3-yl)-1-(2-methoxy-pyridin-3-yl)-3-methyl-1,3-dihydro-imidazo[4,5-c]quinolin-2-one]
- IC50 [1]: 40 nM
- IC50 [2]: 211 nM
